Data from ChEMBL document CHEMBL3352360, “Two new spirooxindole alkaloids from rhizosphere strain Streptomyces sp. xzqh-9” (Bioorg Med Chem Lett, 2014).
Activity calls are given as the source filed them. The calls are words filed in the database; no cut-off is given here.

Legend:
[1] = Retention factor of the compound on TLC over silica gel; format: physicochemical
[2] = Antiproliferative activity against human BGC823 cells assessed as inhibition of cell proliferation at 10 to 100 uM; format: functional, BGC-823
[3] = biological target: L-lactate dehydrogenase (Homo sapiens) (UniProt V9HWB9); assay: Inhibition of LDH (unknown origin) at 10 uM by biochemical assay
MCF7 = assay: Antiproliferative activity against human MCF7 cells assessed as inhibition of cell proliferation at 10 to 100 uM; format: functional
A549 = assay: Antiproliferative activity against human A549 cells assessed as inhibition of cell proliferation at 10 to 100 uM; format: functional
HepG2 = assay: Antiproliferative activity against human HepG2 cells assessed as inhibition of cell proliferation at 10 to 100 uM; format: functional
BaF3 = assay: Inhibition of Bcr-Abl (unknown origin) expressed in BaF3 cells at 30 uM; format: cell-based; conditions: Homo sapiens

Rf [1]	inhibition [3]	SMILES	inhibition (INH) [2] [%]	inhibition (INH) (MCF7) [%]	inhibition (INH) (A549) [%]	inhibition (INH) (HepG2) [%]	inhibition (BaF3)
0.67	inactive	CC1=C(O)C(=O)C2=C(CCC2)[C@]12C(=O)N(C)c1ccccc12	<10	<10	<10	<10	15%
0.8	inactive	C[C@@H]1[C@@H](O)C(=O)C2=C(CCC2)[C@]12C(=O)N(C)c1ccccc12	<10	<10	<10	<10	inactive
